Results published in US8927579B2, “Male contraceptive” (priority 2007, dated 2015).
Where a name gives a salt, the structure may show the parent alone.

How the values were obtained:
[1] = test system: sperm emission in patients; details: clinical studies; cited from earlier work
[2] = test system: circular muscle of human vas deferens; experiment: Inhibition at fixed concentration of contractions evoked by high K+ in the presence of FPL 64176, circular muscle; details: drug 10 μM; for inhibition at 10 µM: Homo sapiens, [K+]o 120 mM in the presence of FPL 64176
Excerpt: (§1) Human vas deferens specimens were obtained after elective vasectomies of healthy fertile men. College ethical approval and the consent of patients were obtained. The specimens were placed in ice-cold Krebs' medium, dissected-free of connective tissue/blood vessels and cut longitudinally into strips (longitudinal muscle preparations; 5-10 mm long & 1 mm wide) or transversely into rings (circular muscle preparations; 3 mm in length). The longitudinal and circular muscle preparations were then set up for tension recording (resting tension 5-7 mN) in a Perspex chamber superfused at 2 ml per min with Krebs' medium (36° C.) composed of (mM): NaCl, 118.8; NaHCO3, 25; KCl, 4.7; CaCl2.2H2O, 2.5; KH2PO4, 1.2; MgSO4.7H2O, 1.2; glucose, 11.1; ascorbic acid 0.1 and continuously gassed with 95% O2 and 5% CO2. Contractile responses were recorded via a Harvard-type force-displacement transducer. The analog signals were digitised using CIO-Das 16/Jr data acquisition software (Amplicon Liveline, Brighton, UK) and re-plotted on a microcomputer.
(§2) Tissues were equilibrated for 180 min in Krebs' medium containing inhibitors of extraneuronal and neuronal reuptake of noradrenaline, oestradiol (1 μM) and desipramine (0.1 μM) respectively, inhibitors of catechol-O-methyltransferase and monoamine oxidase, tropolone (10 μM) and iproniazid (10 μM) respectively and the β-adrenoceptor blocker, propranolol (1 μM). At the end of the equilibration period, the tissues were stimulated with noradrenaline (100 μM). […] After a contact time of 30-40 min in this medium, different experimental protocols (described below) were adopted in order to • (a) Elucidate the contractile actions of L-type Ca^2+ agonists such as FPL 64176 or Bay K 8644. In these experiments, tissues were exposed to FPL 64176 (0.1-10 μM added cumulatively) or in separate experiments Bay K 8644 (0.1-10 μM added cumulatively). • (b) Investigate the effects of various diphenylalkylamines and conventional L-type Ca^2+ antagonists (methoxyverapamil or nifedipine) on contractions evoked by high concentrations of extracellular potassium (high [K^+]o) in the presence of L-type Ca^2+ agonists, FPL 64176 (1 μM) or Bay K 8644 (1 μM). In this protocol, tissues were stimulated with high [K^+]O (10, 30 and 120 mM at 10-15 min intervals) in normal Krebs' medium, then exposed to L-type Ca^2+ agonists for 20-30 min and subsequently stimulated with high [K^+]O (10, 30 and 120 mM) in the presence of the drugs. These provided the initial responses. Following this and in the continuous presence of the L-type Ca^2+ agonists, the tissues were exposed additionally to L-type Ca^2+ antagonists (conventional or diphenylalkylamines) or drug-free vehicle medium. After contact times of 25-50 min the tissues were stimulated, first with high [K^+]O (either 30 mM or 120 mM) in order to take account of the well-documented use-dependent action of the diphenylalkylamine Ca^2+ antagonists. Following recovery from the test contraction and after a further 30-40 min, the tissues were then stimulated with high [K^+]o (10, 30 and 120 mM). This protocol is illustrated in FIGS. 3 and 4. The resulting contractions were measured (see below) and expressed as a percentage of corresponding initial responses to high [K^+]o evoked in the presence of L-type Ca^2+ agonists (i.e. before exposure to L-type Ca^2+ antagonists). […]

[3] = test system: longitudinal muscle of human vas deferens; experiment: Inhibition at fixed concentration of contractions evoked by high K+ in the presence of FPL 64176, longitudinal muscle; details: drug 10 μM; for inhibition at 10 µM: Homo sapiens, [K+]o 120 mM in the presence of FPL 64176
Excerpt: as §1
as §2, with “Following this and in the continuous presence of the L-type Ca^2+ agonists, the tissues were exposed additionally to L-type Ca^2+ antagonists (conventional or diphenylalkylamines) or drug-free vehicle medium. After contact times of 25-50 min the tissues were stimulated, first with high [K^+]O (either 30 mM or 120 mM) in order to take account of the well-documented use-dependent action of the diphenylalkylamine Ca^2+ antagonists. Following recovery from the test contraction and after a further 30-40 min, the tissues were then stimulated with high [K^+]o (10, 30 and 120 mM). This protocol is illustrated in FIGS. 3 and 4.” left out

[4] = test system: longitudinal muscle of human vas deferens; experiment: IC50 against contractions evoked by high K+ (120 mM) in the presence of FPL 64176, longitudinal muscle strips; details: contractions evoked by K+ (120 mM) in the presence of FPL 64176 (1 μM), means ± S.E.M.
Excerpt: as §1
(§3) Tissues were equilibrated for 180 min in Krebs' medium containing inhibitors of extraneuronal and neuronal reuptake of noradrenaline, oestradiol (1 μM) and desipramine (0.1 μM) respectively, inhibitors of catechol-O-methyltransferase and monoamine oxidase, tropolone (10 μM) and iproniazid (10 μM) respectively and the β-adrenoceptor blocker, propranolol (1 μM). At the end of the equilibration period, the tissues were stimulated with noradrenaline (100 μM). […] After a contact time of 30-40 min in this medium, different experimental protocols (described below) were adopted in order to • (a) Elucidate the contractile actions of L-type Ca^2+ agonists such as FPL 64176 or Bay K 8644. In these experiments, tissues were exposed to FPL 64176 (0.1-10 μM added cumulatively) or in separate experiments Bay K 8644 (0.1-10 μM added cumulatively). • (b) Investigate the effects of various diphenylalkylamines and conventional L-type Ca^2+ antagonists (methoxyverapamil or nifedipine) on contractions evoked by high concentrations of extracellular potassium (high [K^+]o) in the presence of L-type Ca^2+ agonists, FPL 64176 (1 μM) or Bay K 8644 (1 μM). In this protocol, tissues were stimulated with high [K^+]O (10, 30 and 120 mM at 10-15 min intervals) in normal Krebs' medium, then exposed to L-type Ca^2+ agonists for 20-30 min and subsequently stimulated with high [K^+]O (10, 30 and 120 mM) in the presence of the drugs. These provided the initial responses. Following this and in the continuous presence of the L-type Ca^2+ agonists, the tissues were exposed additionally to L-type Ca^2+ antagonists (conventional or diphenylalkylamines) or drug-free vehicle medium. After contact times of 25-50 min the tissues were stimulated, first with high [K^+]O (either 30 mM or 120 mM) in order to take account of the well-documented use-dependent action of the diphenylalkylamine Ca^2+ antagonists. Following recovery from the test contraction and after a further 30-40 min, the tissues were then stimulated with high [K^+]o (10, 30 and 120 mM). This protocol is illustrated in FIGS. 3 and 4. The resulting contractions were measured (see below) and expressed as a percentage of corresponding initial responses to high [K^+]o evoked in the presence of L-type Ca^2+ agonists (i.e. before exposure to L-type Ca^2+ antagonists). […] Subsequent analysis (see below) was between contractions of drug-treated tissues and time-matched controls • (c) Determine the inhibitory potencies (IC50 values) of various diphenylalkylamines and phenothiazines and conventional L-type Ca^2+ antagonists (nifedipine and methoxyverapamil) against contractions evoked in longitudinal and circular muscle of human vas deferens by high [K^+]o (120 mM) in the presence of FPL 64176. In these experiments, tissues were stimulated with high [K^+]o (120 mM); sequentially in normal Krebs' medium and after 25-30 min exposure to the L-type Ca^2+ agonist, FPL 64176, (1 μM, Initial response). […]

[5] = test system: circular muscle of human vas deferens; experiment: IC50 against contractions evoked by high K+ (120 mM) in the presence of FPL 64176, circular muscle rings; details: contractions evoked by K+ (120 mM) in the presence of FPL 64176 (1 μM), means ± S.E.M.
Excerpt: as §1, §3

[6] = test system: longitudinal muscle of human vas deferens; experiment: New molecules against contractions to high K+ (120 mM), longitudinal muscle; details: for IC50: Homo sapiens, contractions evoked by K+ (120 mM), preliminary data, mean, n=2-3, read-out: Functional inhibitory potencies (IC50 values), Longitudinal muscle; for relative effectiveness against longitudinal and circular muscle contractions: contractions evoked by high [K+]o; for Selectivity [(C/L)-1]: longitudinal muscle selectivity from IC50 values in circular and longitudinal muscle, K+ (120 mM)
Excerpt: as §1, with “preparations; 5-8” for “preparations; 5-10”, “preparations; ˜3” for “preparations; 3”, “a Harvard type” for “a Harvard-type”
(§4) Tissues were equilibrated for 180 min in Krebs' medium containing inhibitors of extraneuronal and neuronal reuptake of noradrenaline, oestradiol (1 μM) and desipramine (0.1 μM) respectively, inhibitors of catechol-O-methyltransferase and monoamine oxidase, tropolone (10 μM) and iproniazid (10 μM) respectively and the β-adrenoceptor blocker, propranolol (1 μM). At the end of the equilibration period, the tissues were stimulated with noradrenaline (100 μM). […] After 40-45 min in this medium the tissues were stimulated with high [K^+]O (120 mM, Initial response). This was followed by exposure to cumulative concentrations of the new molecules {NIBA(1)XC1, NIBA(14)XN10, NIBA(6)XN3, NIBA(2)XC2, NIBA(53)XN16} or to Krebs' medium containing drug vehicles (time-matched controls). After contact times of 40-60 min at each drug concentration, the tissues were stimulated with high [K^+]o (120 mM). The resulting contractions were measured using computer software developed in-house to measure the total response (i.e. rhythmic activity plus tonic contraction). Contractions obtained in the presence of the new drug molecules were expressed as a percentage of the initial contraction evoked by high [K^+]o (120 mM) before exposure to the drugs.

[7] = test system: circular muscle of human vas deferens; experiment: New molecules against contractions to high K+ (120 mM), circular muscle; details: contractions evoked by K+ (120 mM), preliminary data, mean, n=2-3, read-out: Functional inhibitory potencies (IC50 values), Circular muscle
Excerpt: as §1, with “preparations; 5-8” for “preparations; 5-10”, “preparations; ˜3” for “preparations; 3”, “a Harvard type” for “a Harvard-type”
as §4

[8] = test system: longitudinal muscle of human vas deferens; experiment: Contractile actions of L-type Ca2+ agonists, longitudinal muscle; details: for contractions on second exposure to [K+]o, percentage of corresponding initial responses, longitudinal muscle: [K+]o 30 mM & 120 mM in the continuous presence of agonist 1.0 μM; for response of longitudinal muscle to higher concentration of L-type Ca2+ agonist: agonist 10 μM; for response of longitudinal muscle to brief exposure to L-type Ca2+ agonist: agonist 0.1-3 μM
Excerpt: as §1, §3

[9] = test system: circular muscle of human vas deferens; experiment: Contractile actions of L-type Ca2+ agonists, circular muscle; details: for contractions on second exposure to [K+]o, percentage of corresponding initial responses, circular muscle: [K+]o 30 mM & 120 mM in the continuous presence of agonist 1.0 μM; for response of circular muscle to higher concentration of L-type Ca2+ agonist: agonist 10 μM; for response of circular muscle to brief exposure to L-type Ca2+ agonist: agonist 0.1-3 μM
Excerpt: as §1, §3

[10] = [K+]o 30 mM in the presence of FPL 64176 (1.0 μM)

## CC(COc1ccccc1)N(CCCl)Cc1ccccc1 (centres unmarked) [PBZ, phenoxybenzamine]
[1]
  effect on sperm emission (contraceptive side effect): reversibly inhibit sperm emission
  effects on libido, erection, orgasmic sensation, blood pressure, hormonal balance: without effects on libido, penile erection, orgasmic sensation and more importantly blood pressure or hormonal balance

## O=c1[nH]c2ccccc2n1C1CCN(CCCC(c2ccc(F)cc2)c2ccc(F)cc2)CC1 [Pimozide, pimozide]
[2]
  inhibition at 10 µM: 55%
[3]
  inhibition at 10 µM: 71%
[4]; Homo sapiens
  IC50: 4.4 ± 0.6 µM
[5]; Homo sapiens
  IC50: 8.9 ± 3.1 µM

## CC(NCCN(c1ccccc1)c1ccccc1)c1ccccc1 (centres unmarked) [NIBA(14)XN10]
[6]
  IC50: 15 µM
  relative effectiveness against longitudinal and circular muscle contractions: more effective against longitudinal than circular muscle contractions
  Selectivity [(C/L)-1]: 5.1
[7]
  IC50: 91 µM

## CN1CCCCC1CCN(c1ccccc1)c1ccccc1 (centres unmarked) [NIBA(6)XN3]
[6]
  IC50: 6.25 µM
  relative effectiveness against longitudinal and circular muscle contractions: more effective against longitudinal than circular muscle contractions
  Selectivity [(C/L)-1]: >3.8
[7]
  IC50: > 30 µM

## COC(=O)C1=C(C)NC(C)=C([N+](=O)[O-])[C@H]1c1ccccc1C(F)(F)F [Bay K 8644]
[8]
  contractions on second exposure to [K+]o, percentage of corresponding initial responses, longitudinal muscle: ~92%
  response of longitudinal muscle to higher concentration of L-type Ca2+ agonist: rhythmic contractility
  response of longitudinal muscle to brief exposure to L-type Ca2+ agonist: unresponsive
[9]
  contractions on second exposure to [K+]o, percentage of corresponding initial responses, circular muscle: 86-92%
  response of circular muscle to higher concentration of L-type Ca2+ agonist: rhythmic contractility
  response of circular muscle to brief exposure to L-type Ca2+ agonist: unresponsive

## COC(=O)c1c(C)[nH]c(C)c1C(=O)c1ccccc1Cc1ccccc1 [FPL 64176, 2,5-dimethyl-4-[2-(phenylmethyl)benzoyl]-H-pyrrole-3-carboxylic acid methyl ester]
[8]
  contractions on second exposure to [K+]o, percentage of corresponding initial responses, longitudinal muscle: 160-181%
  response of longitudinal muscle to higher concentration of L-type Ca2+ agonist: rhythmic contractility
  response of longitudinal muscle to brief exposure to L-type Ca2+ agonist: quiescent
[9]
  contractions on second exposure to [K+]o, percentage of corresponding initial responses, circular muscle: 270-300%
  response of circular muscle to higher concentration of L-type Ca2+ agonist: rhythmic contractility
  response of circular muscle to brief exposure to L-type Ca2+ agonist: quiescent

## Fc1ccc(C(c2ccc(F)cc2)N2CCN(C/C=C/c3ccccc3)CC2)cc1 [Flunarizine, flunarizine dihydrochloride]
[2]
  inhibition at 10 µM: 40 to 44%
[2]; [10]
  inhibition of circular muscle contractions compared to time-matched controls: 20-30%
[3]
  inhibition at 10 µM: 40 to 44%
[3]; [10]
  inhibition of longitudinal muscle contractions compared to time-matched controls: 20-30%

## CN1CCCCC1CCN1c2ccccc2Sc2ccc(S(C)(=O)=O)cc21 (centres unmarked) [Sulphoridazine, sulphoridazine]
[4]
  IC50: 15.9 ± 2.9 µM
[5]
  IC50: 14.1 ± 4.9 µM
